In patent US11208400B2, “Substituted 6-(1H-pyrazol-1-yl)pyrimidin-4-amine derivatives and uses thereof” (Bayer Aktiengesellschaft, priority 2016, dated 2021):

Each compound was assayed against T1, human Npt2a (Homo sapiens, UniProt Q06495) (assay: Npt2a activity cell based assay, membrane potential dye, CHO T-REx hNpt2a cells). Conditions: doxycycline-induced, depolarization by sodium phosphate influx, average or median values if tested more than once.
T1 construct: expressed in transfected cells
T1 sequence (Q06495 1-639): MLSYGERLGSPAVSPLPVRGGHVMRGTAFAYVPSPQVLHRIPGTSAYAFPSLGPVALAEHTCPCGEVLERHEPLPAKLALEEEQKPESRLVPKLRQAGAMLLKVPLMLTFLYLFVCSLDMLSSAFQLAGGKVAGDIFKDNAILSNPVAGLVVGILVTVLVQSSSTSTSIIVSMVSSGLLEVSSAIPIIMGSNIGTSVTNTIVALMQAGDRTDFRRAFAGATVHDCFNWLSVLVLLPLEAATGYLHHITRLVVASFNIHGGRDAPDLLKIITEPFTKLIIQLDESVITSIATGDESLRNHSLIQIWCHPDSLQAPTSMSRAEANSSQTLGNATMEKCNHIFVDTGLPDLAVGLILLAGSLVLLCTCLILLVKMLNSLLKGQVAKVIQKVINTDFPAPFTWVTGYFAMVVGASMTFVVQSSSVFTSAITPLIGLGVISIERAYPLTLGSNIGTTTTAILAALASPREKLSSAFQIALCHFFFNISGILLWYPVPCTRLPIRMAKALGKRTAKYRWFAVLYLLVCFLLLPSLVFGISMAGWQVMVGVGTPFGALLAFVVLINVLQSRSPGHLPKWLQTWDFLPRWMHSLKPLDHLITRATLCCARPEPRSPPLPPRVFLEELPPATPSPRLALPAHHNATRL
Procedure, shortened: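 Cells were doxycycline-induced CHO T-REx hNpt2a, dye-loaded and pretreated 5 min at RT with 1 nM–50 μM compound in Na-free pH 7.4 buffer. IC50 was fit to the post/pre-trigger fluorescence ratio.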

| SMILES | IC50 [nM] |
| --- | --- |
| Cc1cc(C(F)F)n(-c2cc(Nc3nn(C)c(-c4ccc(C(F)(F)F)nc4)c3C)ncn2)n1 [Example 552, 6-[5-(difluoromethyl)-3-methyl-1H-pyrazol-1-yl]-N-{1,4-dimethyl-5-[6-(trifluoromethyl)pyridin-3-yl]-1H-pyrazol-3-yl}pyrimidin-4-amine] | 15 |
| CCOC(=O)c1c(Cl)c(C)nn1-c1cc(Nc2c(Cl)c(-c3ccc(F)cc3)nn2C)ncn1 [Example 448, ethyl 4-chloro-1-(6-{[4-chloro-3-(4-fluorophenyl)-1-methyl-1H-pyrazol-5-yl]amino}pyrimidin-4-yl)-3-methyl-1H-pyrazole-5-carboxylate] | 440 |
| Cc1cc(C(F)F)n(-c2cc(Nc3c(C)c(-c4ccc(C(F)F)cc4)nn3C)ncn2)n1 [Example 408, 6-[5-(difluoromethyl)-3-methyl-1H-pyrazol-1-yl]-N-{3-[4-(difluoromethyl)phenyl]-1,4-dimethyl-1H-pyrazol-5-yl}pyrimidin-4-amine] | 6 |
| CCc1c(Nc2cc(-n3nc(C)c4c3CCCC4=O)ncn2)nn(C)c1-c1ccc(F)cc1 [Example 133, 1-(6-{[4-ethyl-5-(4-fluorophenyl)-1-methyl-1H-pyrazol-3-yl]amino}pyrimidin-4-yl)-3-methyl-1,5,6,7-tetrahydro-4H-indazol-4-one] | 57 |
| COCCn1nc(-c2ccc(F)cn2)c(C)c1Nc1cc(-n2nc(C)cc2C(F)F)ncn1 [Example 543, 6-[5-(difluoromethyl)-3-methyl-1H-pyrazol-1-yl]-N-[3-(5-fluoropyridin-2-yl)-1-(2-methoxyethyl)-4-methyl-1H-pyrazol-5-yl]pyrimidin-4-amine] | 480 |
| COc1c(-c2ccc(F)cc2)nn(CC2CC2)c1Nc1cc(-n2nc(C)c(-c3nnc(C)o3)c2C)ncn1 [Example 450, N-[1-(cyclopropylmethyl)-3-(4-fluorophenyl)-4-methoxy-1H-pyrazol-5-yl]-6-[3,5-dimethyl-4-(5-methyl-1,3,4-oxadiazol-2-yl)-1H-pyrazol-1-yl]pyrimidin-4-amine] | 660 |
| CCc1c(Nc2cc(-n3nc4ncccc4c3C)ncn2)nn(C)c1-c1ccc(F)cc1 [Example 167, N-[4-ethyl-5-(4-fluorophenyl)-1-methyl-1H-pyrazol-3-yl]-6-(3-methyl-2H-pyrazolo[3,4-b]pyridin-2-yl)pyrimidin-4-amine] | 550 |
| CCc1c(Nc2cc(-n3nc(C)cc3CO)ncn2)nn(C)c1-c1ccc(F)cc1 [Example 104, [1-(6-{[4-ethyl-5-(4-fluorophenyl)-1-methyl-1H-pyrazol-3-yl]amino}pyrimidin-4-yl)-3-methyl-1H-pyrazol-5-yl]methanol] | 150 |
| Cc1cc(C)n(-c2cc(Nc3nn(CCC4CC4)c(-c4ccc(C#N)cc4)c3C)ncn2)n1 [Example 212, 4-[1-(2-cyclopropylethyl)-3-{[6-(3,5-dimethyl-1H-pyrazol-1-yl)pyrimidin-4-yl]amino}-4-methyl-1H-pyrazol-5-yl]benzonitrile] | 1170 |
| COc1c(C)nn(-c2cc(Nc3c(C)c(-c4ccc(C#N)cc4)nn3C)ncn2)c1C [Example 436, 4-(5-{[6-(4-methoxy-3,5-dimethyl-1H-pyrazol-1-yl)pyrimidin-4-yl]amino}-1,4-dimethyl-1H-pyrazol-3-yl)benzonitrile] | 10 |
| Cc1nn(-c2cc(Nc3c(C)c(-c4ccc(F)cc4)nn3CC3CC3)ncn2)c(C)c1C1(C(F)(F)F)OCCO1 [Example 517, N-[1-(cyclopropylmethyl)-3-(4-fluorophenyl)-4-methyl-1H-pyrazol-5-yl]-6-{3,5-dimethyl-4-[2-(trifluoromethyl)-1,3-dioxolan-2-yl]-1H-pyrazol-1-yl}pyrimidin-4-amine] | 29 |
| COc1c(-c2ccc(F)cc2)nn(CC2CC2)c1Nc1cc(-n2nc(C)cc2C)ncn1 [Example 315, N-[1-(cyclopropylmethyl)-3-(4-fluorophenyl)-4-methoxy-1H-pyrazol-5-yl]-6-(3,5-dimethyl-1H-pyrazol-1-yl)pyrimidin-4-amine] | 99 |
| Cc1nn(-c2cc(Nc3c(C)c(-c4ccccc4)nn3C)ncn2)c(C)c1Cl [Example 86, 6-(4-chloro-3,5-dimethyl-1H-pyrazol-1-yl)-N-(1,4-dimethyl-3-phenyl-1H-pyrazol-5-yl)pyrimidin-4-amine] | 50 |
| Cc1nn(-c2cc(Nc3nn(C)c(-c4ccc(F)cc4)c3Cl)ncn2)c(C)c1C1(O)CC1 [Example 357, 1-[1-(6-{[4-chloro-5-(4-fluorophenyl)-1-methyl-1H-pyrazol-3-yl]amino}pyrimidin-4-yl)-3,5-dimethyl-1H-pyrazol-4-yl]cyclopropanol] | 32 |
| CCc1c(-c2ccc(F)cc2)nn(C)c1Nc1cc(-n2nc(C)c3cnccc32)ncn1 [Example 230, N-[4-ethyl-3-(4-fluorophenyl)-1-methyl-1H-pyrazol-5-yl]-6-(3-methyl-1H-pyrazolo[4,3-c]pyridin-1-yl)pyrimidin-4-amine] | 830 |
| Cc1c(-c2ccc(C#N)cc2)nn(CC2CC2)c1Nc1cc(-n2nc(C)c3ccncc32)ncn1 [Example 231, 4-[1-(cyclopropylmethyl)-4-methyl-5-{[6-(3-methyl-1H-pyrazolo[3,4-c]pyridin-1-yl)pyrimidin-4-yl]amino}-1H-pyrazol-3-yl]benzonitrile] | 2 |
| CCOC(=O)c1c(C)nn(-c2cc(Nc3nn(C)c(-c4ccc(F)cc4)c3Cl)ncn2)c1C [Example 356, ethyl 1-(6-{[4-chloro-5-(4-fluorophenyl)-1-methyl-1H-pyrazol-3-yl]amino}pyrimidin-4-yl)-3,5-dimethyl-1H-pyrazole-4-carboxylate] | 2 |
| Cc1cc(C(C)(C)O)n(-c2cc(Nc3c(C)c(-c4ccc(OC(F)(F)F)cc4)nn3CC3CC3)ncn2)n1 [Example 291, 2-{1-[6-({1-(cyclopropylmethyl)-4-methyl-3-[4-(trifluoromethoxy)phenyl]-1H-pyrazol-5-yl}amino)pyrimidin-4-yl]-3-methyl-1H-pyrazol-5-yl}propan-2-ol] | 110 |
| Cc1nn(-c2cc(Nc3c(C)c(-c4ccc(C(F)F)nc4)nn3CC3CC3)ncn2)c(C)c1C#N [Example 512, 1-[6-({1-(cyclopropylmethyl)-3-[6-(difluoromethyl)pyridin-3-yl]-4-methyl-1H-pyrazol-5-yl}amino)pyrimidin-4-yl]-3,5-dimethyl-1H-pyrazole-4-carbonitrile] | 1400 |
| Cc1nn(-c2cc(Nc3nn(CC4CC4)c(-c4ccc(F)cc4)c3Cl)ncn2)c(C)c1Cl [Example 183, N-[4-chloro-1-(cyclopropylmethyl)-5-(4-fluorophenyl)-1H-pyrazol-3-yl]-6-(4-chloro-3,5-dimethyl-1H-pyrazol-1-yl)pyrimidin-4-amine] | 930 |
| Cc1c(-c2ccc(C#N)cc2)nn(CC2CC2)c1Nc1cc(-n2nc(C)c3ncccc32)ncn1 [Example 232, 4-[1-(cyclopropylmethyl)-4-methyl-5-{[6-(3-methyl-1H-pyrazolo[4,3-b]pyridin-1-yl)pyrimidin-4-yl]amino}-1H-pyrazol-3-yl]benzonitrile] | 6 |
| CCOC(=O)c1c(C)nn(-c2cc(Nc3c(C)nn(-c4ccc(F)cc4)c3C)ncn2)c1C [Example 453, ethyl 1-(6-{[1-(4-fluorophenyl)-3,5-dimethyl-1H-pyrazol-4-yl]amino}pyrimidin-4-yl)-3,5-dimethyl-1H-pyrazole-4-carboxylate] | 18 |
